This assay concerns BDF1 mice, P388 leukemia ip, median survival T/C. Nature of the assay: NCI In Vivo Anticancer Drug Screen. Data for tumor model P388 Leukemia (intraperitoneal) in B6D2F1 (BDF1) mice. Particulars: endpoint: median survival time, higher = longer survival. In a few lines:
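Each value expresses how treatment altered survival: treated-mouse outcome over vehicle-mouse outcome, both groups bearing the transplanted tumour.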

[1] abbreviates: dose: 100.0 mg/kg/injection, schedule: Q04DX003 (ip), vehicle: saline with Tween-80.
Setting [2] is: dose: 200.0 mg/kg/injection, schedule: Q04DX003 (ip), vehicle: saline with Tween-80.
The mark [3] stands for this setting: dose: 100.0 mg/kg/injection, schedule: Q04DX003 (ip), vehicle: Klucel (hydroxypropylcellulose) (HPC).
Setting [4] is: dose: 100.0 mg/kg/injection, schedule: Q01DX009 (ip), vehicle: Klucel (hydroxypropylcellulose) (HPC).
Where [5] appears, read: dose: 200.0 mg/kg/injection, schedule: Q01DX009 (ip), vehicle: Klucel (hydroxypropylcellulose) (HPC).
Where [6] appears, read: dose: 200.0 mg/kg/injection, schedule: Q04DX003 (ip), vehicle: Klucel (hydroxypropylcellulose) (HPC).
Where [7] appears, read: dose: 50.0 mg/kg/injection, schedule: Q04DX003 (ip), vehicle: saline.
The mark [8] stands for this setting: dose: 100.0 mg/kg/injection, schedule: Q04DX003 (ip), vehicle: saline.
[9] abbreviates: dose: 200.0 mg/kg/injection, schedule: Q04DX003 (ip), vehicle: saline.
The mark [10] stands for this setting: dose: 50.0 mg/kg/injection, schedule: Q04DX003 (ip), vehicle: saline with Tween-80.

“And” between values parts separate entries of the source, which are not always exact repeats. Identical values can stand only once. Inconclusive results and toxic doses are left out.

`CC(=O)C1(O)Cc2c(O)c3c(c(O)c2C(OC2CC(N)C(O)C(C)O2)C1)C(=O)c1ccccc1C3=O` (stereo unspecified): the T/C (dose: 324.0 micrograms/kg/injection, schedule: Q04DX003 (ip), vehicle: water) was 177 % of control; the T/C (dose: 540.0 micrograms/kg/injection, schedule: Q04DX003 (ip), vehicle: water) was 220 % of control; the T/C (dose: 900.0 micrograms/kg/injection, schedule: Q04DX003 (ip), vehicle: water) was 116 % of control; the T/C (dose: 1500.0 micrograms/kg/injection, schedule: Q04DX003 (ip), vehicle: water) is 90 % of control.

On to `CCOC(=O)C1C(=O)C(C(=O)Nc2ccccc2)C(=O)C(C(=O)OCC)C1c1ccc(O)cc1` (stereo unspecified), for which the T/C is, setting by setting: under setting [1], 110 % of control and 90 % of control; under setting [2], 115 % of control; (dose: 400.0 mg/kg/injection, schedule: Q04DX003 (ip), vehicle: saline with Tween-80) 110 % of control and 100 % of control.

Turning to `CC(=O)O[C@H]1CC[C@H]2[C@@H]3CC[C@H]4C[C@@H]5[C@H](C[C@]4(C)[C@H]3CC[C@]12C)C5(F)F`, the T/C was 100 % of control (dose: 3.12 mg/kg/injection, schedule: Q04DX003 (ip), vehicle: Klucel (hydroxypropylcellulose) (HPC)); 88 % of control (dose: 6.25 mg/kg/injection, schedule: Q01DX009 (ip), vehicle: Klucel (hydroxypropylcellulose) (HPC)); 100 % of control (dose: 6.25 mg/kg/injection, schedule: Q04DX003 (ip), vehicle: Klucel (hydroxypropylcellulose) (HPC)); 92 % of control (dose: 12.5 mg/kg/injection, schedule: Q01DX009 (ip), vehicle: Klucel (hydroxypropylcellulose) (HPC)); 100 % of control (dose: 12.5 mg/kg/injection, schedule: Q04DX003 (ip), vehicle: Klucel (hydroxypropylcellulose) (HPC)); 100 % of control (dose: 25.0 mg/kg/injection, schedule: Q01DX009 (ip), vehicle: Klucel (hydroxypropylcellulose) (HPC)). Also, the T/C under setting [3] was 100 % of control.

With `Cc1ccccc1C(Br)C1=CC(C)(C)c2ccccc2C1=O` (stereo unspecified), the T/C runs as follows: under setting [4], 95 % of control; under setting [3], 100 % of control; under setting [5], 100 % of control; under setting [6], 104 % of control; (dose: 400.0 mg/kg/injection, schedule: Q01DX009 (ip), vehicle: Klucel (hydroxypropylcellulose) (HPC)) 95 % of control; (dose: 400.0 mg/kg/injection, schedule: Q04DX003 (ip), vehicle: Klucel (hydroxypropylcellulose) (HPC)) 100 % of control.

As to `CC(C)(CC(=O)O)c1ccccc1`, the T/C by setting is: (dose: 25.0 mg/kg/injection, schedule: Q04DX003 (ip), vehicle: saline) 89 % of control and 109 % of control; under setting [7], 104 % of control and 120 % of control; under setting [8], 102 % of control and 106 % of control; under setting [9], 102 % of control and 110 % of control and 113 % of control; (dose: 400.0 mg/kg/injection, schedule: Q04DX003 (ip), vehicle: saline) 105 % of control.

For the molecule `O=C(O)/C(Br)=C/c1ccccc1`, the T/C is, setting by setting: under setting [10], 100 % of control; under setting [1], 109 % of control; under setting [2], 95 % of control.

Take `CN(C)CCCNC(=O)Nc1ccccc1`: the T/C reads like this: under setting [3], 95 % of control; under setting [6], 104 % of control.

Regarding `O=C1CSC(C2CCCCC2)N1c1nccs1` (stereo unspecified), the T/C reads like this: (dose: 50.0 mg/kg/injection, schedule: Q01DX009 (ip), vehicle: saline with Tween-80) 110 % of control; (dose: 100.0 mg/kg/injection, schedule: Q01DX009 (ip), vehicle: saline with Tween-80) 112 % of control; (dose: 200.0 mg/kg/injection, schedule: Q01DX009 (ip), vehicle: saline with Tween-80) 110 % of control.

`CNc1nc2c(N)ncnc2n1C1OC(CO)C(O)C1O` (stereo unspecified): the T/C (dose: 6.25 mg/kg/injection, schedule: Q01DX009 (ip), vehicle: saline with Tween-80) is 105 % of control and the T/C (dose: 12.5 mg/kg/injection, schedule: Q01DX009 (ip), vehicle: saline with Tween-80) is 123 % of control.

On to `CCCCCn1c(C)cc(/C=C\c2ccc3cc(C)ccc3[n+]2C)c1C`, for which the T/C was 105 % of control and 109 % of control (dose: 0.22 mg/kg/injection, schedule: Q01DX009 (ip), vehicle: saline); 95 % of control and 110 % of control (dose: 0.33 mg/kg/injection, schedule: Q01DX009 (ip), vehicle: saline); 109 % of control (dose: 0.5 mg/kg/injection, schedule: Q01DX009 (ip), vehicle: saline); 118 % of control (dose: 0.5 mg/kg/injection, schedule: Q04DX003 (ip), vehicle: saline); 90 % of control (dose: 0.75 mg/kg/injection, schedule: Q01DX009 (ip), vehicle: saline); 108 % of control (dose: 0.88 mg/kg/injection, schedule: Q04DX003 (ip), vehicle: saline). Further, the T/C is 120 % of control (dose: 1.0 mg/kg/injection, schedule: Q04DX003 (ip), vehicle: saline); 112 % of control (dose: 1.32 mg/kg/injection, schedule: Q04DX003 (ip), vehicle: saline); 90 % of control (dose: 1.5 mg/kg/injection, schedule: Q01DX009 (ip), vehicle: saline); 104 % of control and 120 % of control (dose: 2.0 mg/kg/injection, schedule: Q04DX003 (ip), vehicle: saline); 116 % of control (dose: 3.0 mg/kg/injection, schedule: Q04DX003 (ip), vehicle: saline).

For the molecule `O=C(Nc1ccc(Cl)cc1)c1ccccc1`, the T/C runs as follows: (dose: 50.0 mg/kg/injection, schedule: Q01DX009 (ip), vehicle: Klucel (hydroxypropylcellulose) (HPC)) 122 % of control; (dose: 50.0 mg/kg/injection, schedule: Q04DX003 (ip), vehicle: Klucel (hydroxypropylcellulose) (HPC)) 95 % of control; under setting [4], 95 % of control; under setting [3], 91 % of control; under setting [5], 90 % of control; under setting [6], 100 % of control.

With `O=C(O)c1nc2nc(Cl)c(Cl)nc2[nH]1`, the T/C is 111 % of control under setting [7], 97 % of control under setting [8] and 116 % of control under setting [9].

Consider `C=C(Br)COCC`, for which the T/C by setting is: (dose: 5.78 mg/kg/injection, schedule: Q01DX001 (ip), vehicle: saline) 95 % of control; (dose: 11.56 mg/kg/injection, schedule: Q01DX001 (ip), vehicle: saline) 113 % of control; (dose: 13.75 mg/kg/injection, schedule: Q04DX003 (ip), vehicle: saline) 95 % of control; (dose: 23.12 mg/kg/injection, schedule: Q01DX001 (ip), vehicle: saline) 104 % of control; (dose: 27.5 mg/kg/injection, schedule: Q04DX003 (ip), vehicle: saline) 109 % of control; (dose: 35.0 mg/kg/injection, schedule: Q01DX009 (ip), vehicle: saline) 100 % of control. Further, the T/C (dose: 46.25 mg/kg/injection, schedule: Q01DX001 (ip), vehicle: saline) was 100 % of control; the T/C (dose: 55.0 mg/kg/injection, schedule: Q01DX009 (ip), vehicle: saline) is 109 % of control; the T/C (dose: 55.0 mg/kg/injection, schedule: Q04DX003 (ip), vehicle: saline) is 90 % of control; the T/C (dose: 80.0 mg/kg/injection, schedule: Q04DX003 (ip), vehicle: saline) was 110 % of control; the T/C (dose: 92.5 mg/kg/injection, schedule: Q01DX001 (ip), vehicle: saline) is 113 % of control; the T/C (dose: 125.0 mg/kg/injection, schedule: Q04DX003 (ip), vehicle: saline) was 100 % of control. Moreover, under “dose: 185.0 mg/kg/injection, schedule: Q04DX003 (ip), vehicle: saline”, the T/C was 100 % of control.

Consider `CC1CNC2C(C)C3C(CC4C5CCC6CC(N)CCC6(C)C5CCC43C)OC2(O)C1` (stereo unspecified), for which the T/C reads like this: (dose: 12.5 mg/kg/injection, schedule: Q04DX003 (ip), vehicle: saline with Tween-80) 112 % of control; (dose: 25.0 mg/kg/injection, schedule: Q04DX003 (ip), vehicle: saline with Tween-80) 100 % of control; under setting [10], 91 % of control.

The values above are taken from PubChem BioAssay AID328 (DTP/NCI, 2004).
